We go through seven compounds from ChEMBL document CHEMBL1201862, “PubChem BioAssay data set” (2004).

Experiment [1] is described as follows: viability loss in MITF-independent A375 cells – cell-based, CellTiter-Glo luminescence, dry powder, set 2, counter-screen for MITF inhibitor project, dose response (AID 624489).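 Also: actives are compounds lowering A375 viability meaning general cytotoxicity.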 In kind it is functional. Conditions: A-375.
Experiment [2] can be described thus: cytotoxicity in MITF-independent A375 cells – cell-based, CellTiter-Glo luminescence, dry powder, set 4, counter-screen for MITF inhibitor project, dose response (AID 624364).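 Also: A375 melanoma cells are MITF independent so this is a counter screen.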 In kind it is functional. Conditions: A-375.
The nature of the next experiment: cells. Conditions: HEK293.
Experiment [3] in a line: IC50 of Artemis nuclease activity blockers – biochemical, fluorescence intensity, dose response (AID 720701).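 Also: Artemis endonuclease enzyme.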 In kind it is functional.
Experiment [4] deals with T1, Low molecular weight phosphotyrosine protein phosphatase (Homo sapiens, UniProt P24666).
T1 sequence (P24666 whole entry): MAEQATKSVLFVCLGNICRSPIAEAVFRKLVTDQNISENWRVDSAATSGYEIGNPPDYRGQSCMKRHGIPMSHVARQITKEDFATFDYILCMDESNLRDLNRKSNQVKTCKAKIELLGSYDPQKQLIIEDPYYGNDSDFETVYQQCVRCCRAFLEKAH
In kind it is functional. Conditions: read-out: IC50_Mean.

A short description of experiment [5]: toxicity to human hepatoma HepG2 cells – cell-based, cherry-picked samples, cytotoxicity control, dose response (AID 1159577). In kind it is functional.
Experiment [6] is described as follows: YAP1 overexpression rescue of CTGF inhibition – DLD1 cells, RT-qPCR, cherry-pick, mechanism study for YAP1 pathway inhibitor project, dose response (AID 1053127). The following applies: DLD-1. In kind it is functional, cell-based.
The nature of experiment [7]: P. falciparum Dd2 growth inhibitors, dose response, SYBR Green, cherry-picked samples (AID 1159567). In kind it is functional, cell-based.
The nature of experiment [8]: CTGF mRNA reduction in DLD1 cells – cell-based, DLD1 colon cancer, RT-qPCR, cherry-pick, dose response (AID 1053122). In kind it is functional. The following applies: Cancer cell lines.
Experiment [9] is described as follows: viability loss in HepG2 hepatoma cells – cell-based, cherry-picks, set 5, cytotoxicity control, dose response (AID 1053118). In kind it is functional.
Experiment [10] can be described thus: inhibition of fibronectin matrix deposition – AH1F cells, Alexa488-fibronectin fluorescence, cherry-pick, set 2, dose response (AID 1117283). In kind it is functional, cell-based.
The target of another experiment is Paired box protein Pax-8 (Homo sapiens, UniProt Q06710). Nature of the experiment: PAX8 transcriptional activity inhibition in RMG-I – RMG-I cells, luciferase, cherry-pick, dose response (AID 687027).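 Also: luciferase reporter driven by Pax8 target thyroperoxidase promoter measured by SteadyGlo luminescence.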 In kind it is functional, cell-based.
A short description of experiment [11]: Dd2 malaria parasite growth inhibition potency – SYBR Green, dry powder samples, dose response (AID 1159566).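 Also: potency for growth inhibition with lower SYBR green DNA signal.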 In kind it is functional, cell-based.
A short description of experiment [12]: OVCAR8 cell viability loss – plate reader, dry powder samples, PAX8 project, dose response (AID 743197). Conditions: OVCAR-8. In kind it is functional, cell-based.
The nature of experiment [13]: IGROV1 cell killing – plate reader, dry powder samples, PAX8 inhibitor project, dose response (AID 743043). In kind it is functional, cell-based. Conditions: IGROV-1.
The nature of experiment [14]: A549 cell cytotoxicity, dose response, cytotoxicity control, plate reader, cherry-pick, antagonist series (AID 743412). In kind it is functional, cell-based.
Experiment [15] can be described thus: blockers of bursicon-stimulated LGR2 cAMP reporter – cell-based, HEK293, CRE-luciferase reporter, cherry pick, set 2, dose response (AID 743343).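 Also: transfected cells were stimulated with diluted bursicon conditioned medium after compound addition.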 In kind it is functional.
Experiment [16] can be described thus: toxicity toward immortalized ovarian surface epithelium – cell-based, plate reader, dry powder samples, cytotoxicity control for PAX8 inhibitor project, dose response (AID 743045). In kind it is functional.
Experiment [17] can be described thus: toxicity to human HepG2 hepatoma cells – cell-based, plate reader, dry powder samples, cytotoxicity control, dose response (AID 1159569).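 Also: inhibitor potency with signal falling toward the positive control level.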 In kind it is functional.
A short description of experiment [18]: OVCAR-3 cell viability loss – plate reader, dry powder samples, PAX8 inhibitor project, dose response (AID 743044). In kind it is functional, cell-based.
Experiment [19] can be described thus: A2780 cell killing – plate reader, dry powder samples, cytotoxicity control, dose response (AID 743046). In kind it is functional, cell-based.
The nature of experiment [20]: blockade of melanocortin 4 receptor signaling – cell-based, plate reader, cherry pick, counter-screen for LGR2 antagonist project, dose response (AID 743444).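 Also: transfected HEK 293 cells stimulated with alpha-MSH peptide; potency of inhibitors of the alpha-MSH evoked signal.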 In kind it is functional.
Experiment [21] is described as follows: toxicity toward HepG2 liver cells – cell-based, plate reader, cherry-pick, antagonist series, cytotoxicity control, dose response (AID 743416). In kind it is functional.
The nature of experiment [22]: growth inhibition of yeast DHODH-expressing 3D7 parasites – SYBR Green, dry powder samples, dose response (AID 1159570).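 Also: parasite growth measured after 72 hours of compound exposure.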 In kind it is functional, cell-based.
Experiment [23] in a line: viability loss in HEK293 cells – cell-based, plate reader, cherry-picked samples, cytotoxicity control, dose response (AID 743446). In kind it is functional.
A short description of experiment [24]: growth inhibition of PfATP4-mutant resistant parasites – NITD609-resistant line, SYBR Green, dry powder, dose response (AID 1159571).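 Also: parasites synchronized at ring stage by sorbitol before testing.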 In kind it is functional, cell-based.
Experiment [25] addresses NAD-dependent protein deacylase sirtuin-5, mitochondrial (Homo sapiens, UniProt Q9NXA8). The experiment can be described thus: sirtuin-5 deacylation blockers, concentration series – biochemical, fluorescence imaging, cherry-pick, set 5, dose response (AID 720591).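 Also: desuccinylation of succinyl peptide AMC substrate read as fluorescence after trypsin release; potency of inhibitors that lower fluorescence and may act on trypsin instead.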

SMILES strings stand for the structures. Activity calls are given as the source filed them.
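For IC50 Mean in this document: Dose-response confirmation assay measuring inhibition of LMPTP enzyme activity by fluorescence intensity read-out.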

NAD-dependent protein deacylase sirtuin-5, mitochondrial, sequence (Q9NXA8 whole entry): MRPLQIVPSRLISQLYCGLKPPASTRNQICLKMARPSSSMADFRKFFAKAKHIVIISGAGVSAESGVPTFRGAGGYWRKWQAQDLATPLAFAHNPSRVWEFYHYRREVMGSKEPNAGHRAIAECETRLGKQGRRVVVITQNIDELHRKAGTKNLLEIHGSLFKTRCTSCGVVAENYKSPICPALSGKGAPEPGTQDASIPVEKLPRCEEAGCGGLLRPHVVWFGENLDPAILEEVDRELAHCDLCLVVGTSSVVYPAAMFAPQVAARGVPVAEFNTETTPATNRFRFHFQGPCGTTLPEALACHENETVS
Paired box protein Pax-8, sequence (Q06710 whole entry): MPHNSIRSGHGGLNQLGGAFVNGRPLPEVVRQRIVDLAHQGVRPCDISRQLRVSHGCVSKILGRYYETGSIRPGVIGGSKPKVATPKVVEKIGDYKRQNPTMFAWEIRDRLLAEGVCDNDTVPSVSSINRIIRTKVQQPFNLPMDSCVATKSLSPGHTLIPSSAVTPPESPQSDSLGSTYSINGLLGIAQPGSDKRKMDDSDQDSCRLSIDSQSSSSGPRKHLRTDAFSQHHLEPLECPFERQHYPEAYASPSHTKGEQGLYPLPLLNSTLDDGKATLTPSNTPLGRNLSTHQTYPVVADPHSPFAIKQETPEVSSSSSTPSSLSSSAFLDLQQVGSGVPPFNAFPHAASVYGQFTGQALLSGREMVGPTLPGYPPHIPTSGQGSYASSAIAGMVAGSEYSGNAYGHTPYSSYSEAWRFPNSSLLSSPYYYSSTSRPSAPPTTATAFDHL

Consider `CCN1CCN(C2=C(NS(=O)(=O)c3ccc(Br)s3)C(=O)c3ccccc3C2=O)CC1`, for which the AC50 in experiment [1] and in [2] was > 70 µM (inactive) each time.
`Fc1ccc2c(c1)[nH]c(=S)n2CCOc1ccccc1`: in “cells”, the AC50 was > 52 µM (inactive).
In the case of `O=C1CC(c2ccco2)Cc2nc(Nc3nc(-c4ccccc4)c4ccccc4n3)ncc21` (stereo not drawn), the results for the IC50 in experiment [3] and in experiment [4] were > 20 µM (inactive) and 10.9 µM (active), respectively.
In the case of `C[C@@H]1CN([C@H](C)CO)C(=O)c2ccccc2-c2ccccc2CO[C@@H]1CN(C)Cc1ccc(Oc2ccccc2)cc1`, the AC50 is 19.8 µM (active) in experiment [5], 7.84 µM (active) in experiment [6], 6.67 µM (active) in experiment [7] and 6.79 µM (active) in experiment [8].
For the compound `COc1ccc([N+](=O)[O-])cc1NS(=O)(=O)c1ccc(C(=O)N2CCCC2)cc1`, the AC50 in experiment [9] is > 52 µM (inactive); in experiment [10] it was 51 µM (active).
`N#Cc1ccc(-c2ccc([C@@H]3[C@@H]4CN(C(=O)C5CC5)C[C@H]3N4)cc2)cc1`: the half-maximal activity concentration (AC50) is 1.16 µM (active) on Paired box protein Pax-8; 0.376 µM (active) in experiment [11]; 19.9 µM (active) in experiment [12]; 4.73 µM (active) in [13]; 0.821 µM (active) in experiment [14]; 1.22 µM (active) in experiment [15]. Besides, the AC50 was 40.5 µM (active) in experiment [16]; < 0.3 µM (active) in experiment [7]; 1.41 µM (active) in [17]; 7.05 µM (active) in experiment [18]; 7.18 µM (active) in [19]; 0.684 µM (active) in experiment [20]. The AC50 in experiment [21] is 1.97 µM (active); in experiment [22], 0.328 µM (active); in experiment [23], 1.7 µM (active); in [24] it was 0.449 µM (active).
As to `O=C(Cc1nnc(NC(=O)Nc2ccc(Cl)cc2)s1)NCc1ccccc1`, in experiment [25], the AC50 was > 30 µM (inactive).
